Legend:
KAI2 [1] = target: T1, KAI2 (Arabidopsis thaliana, UniProt Q9SZU7); experiment: competitive dYLG hydrolysis assay with purified KAI2; also DSF (Tm […] to […] °C) and HPLC hydrolysis (K1/[…] =[…]); format: biochemical
T1 sequence (Q9SZU7 1-270): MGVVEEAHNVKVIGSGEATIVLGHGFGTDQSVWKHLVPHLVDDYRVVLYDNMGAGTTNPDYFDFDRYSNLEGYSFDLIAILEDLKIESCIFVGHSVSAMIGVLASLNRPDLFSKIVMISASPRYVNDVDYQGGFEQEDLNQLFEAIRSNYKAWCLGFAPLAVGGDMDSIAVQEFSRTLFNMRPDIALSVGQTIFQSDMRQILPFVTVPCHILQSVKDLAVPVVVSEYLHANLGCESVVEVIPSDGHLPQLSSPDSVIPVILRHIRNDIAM

KAI2 [2] = target: T1, KAI2; experiment: biochemical; set-up: Competitive inhibition of dYLG (0.5 uM) hydrolysis by purified recombinant KAI2, fluorescence read-out; details: 0.5 uM dYLG substrate, 10 min
Description: The purified KAI2 (1 µg) was incubated with dYLG (0.5 µM) in the absence or presence of dMGer analogs for 10 min. Fluorescence intensity was measured using the Varioskan LUX plate reader (Thermo Fisher Scientific), with excitation and detection wavelengths of 480 and 520 nm, respectively. The IC50 values were calculated using the Enzyme Kinetics module of the SigmaPlot 14 program. Additional detailed methods are described in SI Appendix, Materials and Methods. To produce KAI2 protein, KAI2 cDNA was cloned into the pCold II vector, and KAI2 protein was expressed and purified as previously described(5). Briefly, the plasmid was transformed into BL21, the resulting transformant cells were precultured overnight in 2.5 mL LB medium and then cells were grown in 200 mL TB medium at 35 °C to an OD600 ~0.6. Protein expression was induced by IPTG addition, and inductions were conducted at 16 °C for 20 h. Cells were harvested and then suspended in the protein extraction buffer (50 mM Tris-HCl pH 8.0, BugBuster protein extraction reagent, and 20U of Benzonase, and the constituent proteins were purified by affinity column chromatography. The purified KAI2 (1 µg) was incubated with dYLG (0.5 µM) in the absence or presence of dMGer analogs for 10 min. We first conducted competitive inhibition assays to determine whether the carba-dMGers could bind to the ligand binding pocket of KAI2. In these assays, a profluorescent probe, desmethyl-Yoshimulactone green (dYLG), was used as a substrate, and the KAI2 binding activity was assessed by the inhibitor concentrations necessary to halve the response (IC50) for fluorophore formation. […] Differential scanning fluorimetry (DSF) assays were also performed to evaluate the effect of the dMGer analogs on KAI2 destabilization. In the DSF assay, ligand–protein interactions are monitored by changes in the melting temperature (Tm); effective agonists, such as GR24^ent^-5DS and dGR24^ent^-5DS, lower the Tm value, that is, thermally destabilize the KAI2 protein ([15], [35]).

KAI2 [3] = target: T1, KAI2; experiment: competitive dYLG hydrolysis assay with purified KAI2; also DSF and cleavage kinetics (K1/[…] =[…]); format: biochemical
KAI2 [4] = target: T1, KAI2; experiment: X-ray crystal structure at […] Å (soak); also dYLG competition IC50 and DSF; format: biochemical

Structure (SMILES) | IC50 (KAI2 [2]) [µM] | also measured
O=C1C=C[C@H](Oc2ccc(-c3ccccc3)cc2[N+](=O)[O-])O1 [(+)-dMGer] | – | IC50 (KAI2 [1]): 0.16 µM
O=C1C=C[C@@H](Cc2ccc(-c3ccccc3)cc2[N+](=O)[O-])O1 [(−)-6′-carba-dMGer] | 11 | –
O=C1C=C[C@H](Oc2ccc(-c3ccccc3)cc2[N+](=O)[O-])C1 [(+)-1′-carba-dMGer] | – | IC50 (KAI2 [3]): 78 µM
O=C1CC(CCc2ccccc2Br)O1 (stereo not shown) [2Br-PEO, 4-(2-bromophenethyl)oxetan-2-one] | 0.22 | –
O=C1C=C[C@@H](Oc2ccc(-c3ccccc3)cc2[N+](=O)[O-])O1 [(−)-dMGer] | 3.6 | –
O=C1C=C[C@@H](Oc2ccc(-c3ccccc3)cc2[N+](=O)[O-])C1 [(−)-1′-carba-dMGer] | 152 | –
O=C1C=C[C@H](Cc2ccc(-c3ccccc3)cc2[N+](=O)[O-])O1 [(+)-6′-carba-dMGer] | – | IC50 (KAI2 [4]): 2.5 µM
